Laboratory results as given in patent publication US11660319B2, “Compositions comprising bacterial strains” (priority 2017, dated 2023).

Columns and labels:
[1] = ABTS antioxidant capacity assay of bacterial cell lysate; settings: compared to Trolox
Experimental: Bacterial cells (10^6 or greater) were collected and centrifuged. They were resuspended in assay buffer (using three times the pellet volume). The suspension was sonicated on ice for 5 minutes and then spun down at 12,000×g for 10 minutes. The supernatant was removed and measured using the ABTS assay kit produced by Sigma Aldrich (code CS0790), in accordance with manufacturer's instructions.

SHSY5Y = experiment: Neurite outgrowth: microscopy and MAP2 gene expression (qPCR); type: cell-based, human
Experimental: SHSY5Y were plated in 10 cm petri dishes a density of 2×10^6 cells. After 24 h cells were treated in differentiation medium (growth medium containing 1% FBS without RA) with 10% bacteria supernatants or YCFA+, 10 uM RA, 200 uM hexanoic acid or 200 uM valproic acid, for 17 hrs. There after representative images were taken using phase contrast EVOS XL core microscope at 40×/0.65 magnification. Cells were collected, and total RNA was isolated according to RNeasy mini kit protocol (Qiagen). cDNAs were made using the high capacity cDNA reverse transcription kit (Applied Biosystems). Gene expression was measured using qPCR. GAPDH was used as internal control. Fold change was calculated according to the 2^(−ΔΔct) method.
Cells were seeded onto 8 well chamber slides (Marienfeld Laboratory Glassware) at 5×10^4 cells/well overnight and were treated with 10% bacterial supernatant for 24 hrs. For differentiation, cells were treated with 10 nM Retinoic acid for 5 days before treating with bacterial supernatant. Cells were then fixed with 4% paraformaldehyde in PBS for 20 minutes at room temperature (RT). Fixed cells were washed with PBS, and permeabilized with 1% Triton X-100 in PBS for 10 minutes. After washing with PBS, the slides were incubated with blocking buffer (4% BSA/PBS) for 1 hr at RT before adding anti-MAP2 antibody (sc-74421, Santa Cruz Biotechnology Inc) diluted in 1% BSA/PBS for 12 hr at 4° C. They were then washed twice with PBS, followed by incubation with Alexa Flour 488 conjugated anti-mouse (Molecular Probes Inc) and Alexa Flour 594 conjugated Phalloidin (ab 176757, Abcam) for 1 hr at RT. After washing 3× with PBS, the slides were mounted with Vectorshield[…] containing DAPI (Sigma, Aldrich). Slides were viewed using a Zeiss Axioscope microscope equipped with a 63×/1.2 W Korr objective and filter sets suitable for detection of the fluorochromes used. Manual exposure times for the digital acquisition of images immuno-labelled with MAP-2 were kept constant allowing comparison between different wells and treatments. Phalloidin (F-actin) and DAPI exposure times varied to suit the field of view. Randomised fields of view were acquired using a QImaging camera controlled by Image Pro Plus software. Images were saved as TIFs and opened in Adobe Photoshop CC 2015.1.2 and overlays of the MAP-2, DAPI and Phalloidion images overlaid and merged. Representative images were selected to illustrate the differences in abundance and location of the proteins examined

MPTP lesioned mice = experiment: Dopamine, DOPAC and HVA in striatum of MPTP lesioned mice (HPLC); type: in vivo, mouse; settings: 2 x 10^8 bacteria p.o. 18 days, MPTP 4 × 20 mg/kg i.p. day 0, day 4 sampling
Experimental: The aim of this study was to evaluate the effects of MRX0029 anaerobic bacteria using MPTP lesioned mice. 48 male mice were allocated to 4 different treatment groups (groups A, B, E and I, with n=12 animals in each group). The treatment groups are shown in Table 1 below and the project time course is outlined below.
Groups A, B, E and I were treated daily for 18 days via oral gavage with either bacteria (MRx0029-group E), or vehicle (PBS). Oral treatment started 14 days before MPTP lesion. Group I animals received a daily vehicle (PBS) p.o. (per oral) treatment and were injected i.p. (intraperitoneal) with the reference drug 30 min before and 90 min after first MPTP on day 0. The application volume for p.o. and vehicle treatment was 200 μl per mouse. Bacteria strain of group E was from glycerol stocks (gly). For oral treatment, gavages for applications were stored in vial containing 70% Ethanol and were flushed before and after each use with distilled water. Every treatment group had its own gavage and ethanol vial and distilled water vial. The tubes and gavages were not changed between the groups. […]
Concentrations of DA, DOPAC and HVA in the striatal samples were determined by column liquid chromatography with electrochemical detection [110; 111]. […] The chromatograms were recorded and integrated by use of a computerized data acquisition system (DataApex, Prague, Czech Republic). […]

[2] = test system: SH-SY5Y neuroblastoma cells; experiment: Neuroprotection / cell viability of neuroblastoma cells treated with MPP (CCK-8); type: cell-based, human
Experimental: Once grown the SH-SY5Y neuroblastoma cells were plated on 96-well plate at 11,000 cells/well and incubated for 2 days. The cells were then transferred to differentiation medium (which contains FBS at 1%) and 10 uM retinoic acid (Sigma Aldrich, cat. n. R2625-100MG). Differentiation medium was replaced every other day and cells were harvested at 7 day of differentiation. Cells were pre-treated with or without MPP (Sigma Aldrich, cat. n. D048-1G) for 8 hours. Subsequently, cells were treated with 10% bacterial supernatant and incubated overnight. Cell viability was measured by using CCK-8 reagent (Sigma Aldrich, Cell Counting Kit-8, cat. n. 96992-3000TESTS-F) and read at 450 nm wavelength.

Megasphaera massiliensis [MRx0029]
antioxidant capacity [1]: approximately 2 mM
neurite outgrowth / neuron-like phenotype (SHSY5Y; undifferentiated SHSY-5Y cells, 10% bacteria supernatant, 200 uM hexanoic acid or 200 uM valproic acid, 17 hrs): induced a neuron-like phenotype
MAP2 expression (SHSY5Y; undifferentiated neuroblastoma cells, qPCR, GAPDH internal control): significantly upregulates
DOPAC in striatum (MPTP lesioned mice): recover production
Dopamine in striatum (MPTP lesioned mice): recover production
proliferation of neurons ([2]; 10% bacterial supernatant, without MPP): increase
cell viability of cells treated with MPP ([2]; MPP pre-treatment 8 hours, then 10% bacterial supernatant overnight, compared to MPP alone): rescued viability more than the positive control
protection from MPP+ (cell viability) ([2]; RA-differentiated SHSY-5Y cells treated with MPP+): complete protection
mitochondria metabolic activity ([2]; RA-differentiated SHSY-5Y cells, per se (no MPP+)): increase
